# Experimental data as given in US20050282865A1, “Neurotrophic factor production promoter” (FUJISAWA PHARMACEUTICAL CO., LTD., priority 2002, published 2005).
# Assays:
# [1] = test system: rats with injured spinal cord; test: Walking ability of rats with spinal injury (BBB scale); type: in vivo, rat; conditions: spinal-injured Wistar rats, APA 0.75 mg/kg i.p. once a day
# Procedure: 7-week-old male Wistar rats (Japan SMC, Inc.) were divided into the following three groups (12-17 rats per group) and subjected to a test. Pentobarbital sodium (DAINIPPON Pharmaceutical Co., Ltd., 35 mg/kg) was intraperitoneally injected to the rats, median incision was applied to the back, and paraspinal muscle was bluntly detached. After laminectomy of the 12th thoracic vertebra, the left spinal cord was cut at the same position with a sharp cutting tool. After 5 hr from the cutting, the rats confirmed to have anesthetic disorder in the left hind paw were subjected to the following test. • Group 1 PBS was intraperitoneally administered to rats with uninjured spinal cord (sutured without cutting the spinal cord after laminectomy of the 12th thoracic vertebra). • Group 2 PBS was intraperitoneally administered to rats with injured spinal cord. • Group 3 APA (0.75 mg/kg) dissolved in PBS was intraperitoneally administered to rats with injured spinal cord.
# In every group, the administration was performed once a day for 20 days from the day of spinal injury. Evaluation method of walking ability of rats with injured spinal cord: The rats were placed in a box (length 1 m×width 1 m×height 30 cm) painted in gray, allowed to search freely, and evaluated in 21 levels according to 21-Point Basso-Besttie-Bresnahan Locomotor Rating Scale (BBB scale).
# [2] = Observation of normal mice after 7 consecutive days of intraperitoneal APA; type: in vivo, mouse; conditions: normal ddy mice, APA i.p. once a day for 7 days (0.75 or 7.5 mg/kg)
# Procedure: (§1) 5-week-old male ddy mice (Japan LLC, Inc.) were divided into the following three groups (9 mice per group) and subjected to a test. • Group 1 (Control) Phosphate buffered saline (PBS) was intraperitoneally administered to the mice once a day for 7 days. • Group 2 APA (0.75 mg/kg) dissolved in PBS was intraperitoneally administered to the mice once a day for 7 days. • Group 3 APA (7.5 mg/kg) dissolved in PBS was intraperitoneally administered to the mice once a day for 7 days.
# [3] = test system: NGF; test: NGF expression in the brain of normal mouse (EIA); type: in vivo; conditions: normal mice, 24 hr after final administration, vs control
# Procedure: as §1
# (§2) In every group, the mice were decapitated at 24 hr after the final administration and the cerebral cortex and striatum thereof were removed.
# (§3) The removed cerebral cortex and striatum were weighed, a homogenizing buffer (0.1M Tris-phosphate buffer (pH 7.4) containing 1M sodium hydrochloride, 2% BSA, 2 mM EDTA, 0.2% sodium azide) supplemented with aprotinin (80 TIU/L) was added in an amount of 19-fold volume of the weight, and the mixture was sonicated 30 times. […]
# (§4) The concentration of neurotrophic factor in each sample was measured using EIA according to the method of Furukawa et al. (Journal of Neurochemistry), 40, 734-744 (1983)} in the case of NGF, and using EIA according to the method of Nitta et al. {pp. 463-467 of “Mapping the progress of Alzheimer's and Parkinson's Disease” (2002) edited by Mizuno et al.}, in the case of GDNF. […]
# [4] = test system: NGF; test: NGF expression in the cerebral cortex of mouse model of Parkinson's disease (EIA); type: in vivo; conditions: 6-OHDA mouse model
# Procedure: (§5) The removed cerebral cortex and striatum were weighed, a homogenizing buffer (0.1M Tris-phosphate buffer (pH 7.4) containing 1M sodium hydrochloride, 2% BSA, 2 mM EDTA, 0.2% sodium azide) supplemented with aprotinin (80 TIU/L) was added in an amount of 19-fold volume of the weight, and the mixture was sonicated 30 times. After centrifugation (100,000 g×30 min) at 4° C., the supernatant was separated and the same amount of chloroform was added. The mixture was thoroughly stirred and centrifuged (20,000 g×10 min). The supernatant was separated and used as a sample for EIA (cryopreserved at −20° C. until use).
# (§6) The concentration of neurotrophic factor in each sample was measured using EIA according to the method of Furukawa et al. (Journal of Neurochemistry), 40, 734-744 (1983)} in the case of NGF, and using EIA according to the method of Nitta et al. {pp. 463-467 of “Mapping the progress of Alzheimer's and Parkinson's Disease” (2002) edited by Mizuno et al.}, in the case of GDNF. The obtained values were multiplied by 20 to give a neurotrophic factor content of each brain region.
# (§7) 5-week-old male ddy mice (Japan LLC, Inc.) were divided into the following four groups (9 mice per group) and subjected to a test. […]
# [5] = test system: GDNF; test: GDNF expression in the brain of normal mouse (EIA); type: in vivo; conditions: normal mice, 24 hr after final administration
# Procedure: as §1, §2, §3, §4
# [6] = test system: dopaminergic nerve; test: Functional evaluation of dopaminergic nerve: methamphetamine-induced one side cycling movement in 6-OHDA mouse model of Parkinson's disease; type: in vivo; conditions: 6-OHDA striatum destruction, counted 10-20 min after methamphetamine 10 mg/kg, no-APA group 86.0±14.1
# Procedure: 5-week-old male ddy mice (Japan LLC, Inc.) were divided into the following four groups (9 mice per group) and subjected to a test. Under pentobarbital anesthesia and without craniotomy, a needle of a microsyringe was punctured through the head skin into the striatum of the right brain, and 1 μL of 6-hydroxydopamine (6-OHDA, Sigma Co., 11.5 μg/μL) dissolved in physiological saline containing 0.05% ascorbic acid was injected. • Group 1 (Control) Physiological saline containing only ascorbic acid was injected, whereby the striatum was not damaged. […]
# The mouse models of Parkinson's disease of each of the above-mentioned groups were allowed to search freely in a transparent cylindrical container (glass, diameter 9 cm-height 12 cm) for 10 min, methamphetamine (DAINIPPON Pharmaceutical Co., Ltd., 10 mg/kg) was intraperitoneally administered, and the number of cycling in 10-20 min after administration was counted. […]
# [7] = test system: GDNF; test: GDNF expression in the cerebral cortex of mouse model of Parkinson's disease (EIA); type: in vivo; conditions: 6-OHDA mouse model
# Procedure: as §5, §6, §7
# [8] = APA 0.75 mg/kg i.p. once a day for 7 days
# [9] = APA 7.5 mg/kg i.p. once a day for 7 days
structure (smiles),measurement,setting,value
"CC(=O)N1CCCC[C@H]1C(=O)O [APA, N-acetyl-L-pipecolic acid]",level of walking ability (BBB scale),"[1]; at day 23, injury-only group plateaued at score 15",recovery to almost the same level as before injury
same,effect of APA administration on walking ability (BBB scale),[1]; first 2 days,not observed
same,level of walking ability (BBB scale),[1]; from day 3,showed improvement from day 3
same,"abnormal behavior, alopecia or decrease of body weight as compared to control mice",[2],"did not show abnormal behavior, alopecia or decrease of body weight"
same,NGF expression amount in the cerebral cortex,[3]; APA 0.75 and 7.5 mg/kg i.p. once a day for 7 days,tended to increase in a dose-dependent manner
same,NGF expression amount in the striatum,[3]; APA 0.75 or 7.5 mg/kg i.p. once a day for 7 days,did not show remarkable difference from the control
same,"NGF expression amount in the cerebral cortex, increase",[4]; [8],11.2%
same,"NGF expression amount in the cerebral cortex, increase",[4]; [9],30.7%
same,"GDNF expression amount in the striatum, increase as compared to the control",[5]; [8],66.0%
same,GDNF expression amount in the cerebral cortex,"[5]; APA 0.75 or 7.5 mg/kg i.p. once a day for 7 days, vs control",no remarkable difference
same,one side cycling movement,[6]; APA 0.75 mg/kg i.p. for 7 days,40.9±17.3 times
same,one side cycling movement,[6]; APA 7.5 mg/kg i.p. for 7 days,47.1±13.1 times
same,"GDNF expression amount in the cerebral cortex, increase",[7]; [8],74.9%
same,"GDNF expression amount in the cerebral cortex, increase",[7]; [9],232.4%
